Values after ≈ are worked out from the molar mass of the structure shown. Like-named read-outs stand apart in the source and are kept apart here. Starred links: 1 amine or outer side, 2 acyl side, 3 side chain; linkers in the order of their positions; H or OH if unused. Positions of bridges follow the written chain, without caps; N, C: chain ends. Non-standard residues stand in square brackets, D forms with d. Residues, ends and D or L forms follow the SMILES beside them. X2 = CCCCCCC[C@H](CC(=O)[*:1])O[*:2]; Val(3-OH) = CC(C)(O)[C@H](N)C(=O)O; X1 = C/C=C(/N[*:1])C(=O)[*:2]; Dab = NCC[C@H](N)C(=O)O; Dap = NC[C@H](N)C(=O)O
What was measured:
Test in all cases: MIC, extended panel, broth micro-dilution in MHII (EUCAST/CLSI)
Type in all cases: cell-based
[1] = test system: E. coli; conditions: Escherichia coli
Protocol: (§1) Plates were, subsequently, incubated at 37 °C in the dark, and viable colonies counted after 16 to 24 h.
(§2) To estimate MIC values (concentration range between 0.05 and 50 µg/mL), solutions of the tested compounds (100, 10 and 1 and if needed 0.1 µg/mL in MeOH) were dispensed into wells of microtiter plate(s) and the solvent was evaporated in a fume-hood. Subsequently, suspensions of pathogen cells in the appropriate medium were dispensed to the wells of microtiter plates and the growth of pathogens were observed after 16 to 20 h of incubation at 37 °C in the dark. Positive controls were the respective pathogen cells suspended in untreated sterile media without addition of compounds(s) and negative controls were the media only. MIC values were defined as the lowest concentration of each compound with no visible growth of pathogen. All MIC tests were performed in triplicate and […]
(§3) MIC determination for compound 2 against an extended panel of bacterial strains.
(§4) Compound 2 was evaluated against a panel of Gram-negative bacteria (Hughes strain collection), including: A. baumannii ATCC 19606, wild-type; BM4454, multidrug-resistant clinical isolate; BM4652, efflux-defective derivative of BM4454; CH9622, colistin-resistant clinical isolate; E. coli ATCC 25922, wild-type; CH3130, efflux-defective ΔtolC mutant isogenic to ATCC 25922; D22, a drug-hypersensitive lpxC mutant of E. coli; CH3491, multidrug-resistant clinical isolate; CH9623 and CH9624, colistin-resistant clinical isolates carrying mcr-1; K. pneumoniae ATCC 13833, wild-type; […]
(§5) clinical isolate; CH9625 and CH9626, colistin-resistant clinical isolates; P. aeruginosa PAO1, wild-type; PAO750, efflux-defective mutant isogenic to PAO1. The in vitro antimicrobial activity of each compound was determined by measuring the MIC value using the broth micro-dilution technique in cation-adjusted Mueller-Hinton II broth (Becton-Dickinson, 212322) according to EUCAST and CLSI guidelines. Each compound prepared in MHII medium was dispensed into a 96-well round-bottomed microtiter plate to give final assay concentrations from 64 µg/mL down to 0.25 µg/mL (two-fold dilution series in 10 wells, plus two control wells: medium control with no bacteria or compound, and growth control with bacteria added but no compound). Bacteria were prepared from fresh colonies grown on non-selective MHII agar, then suspended in saline to 0.5 McFarland (≅ 1.5 × […]
(§6) 10^8 CFU/mL) with turbidity assessed using a Sensititre Nephelometer (Trek Diagnostics Systems Ltd, UK). 50 µL of this bacterial suspension was transferred to 10 mL of MHII broth to give a final bacterial concentration ≅ 5 × 10^5 CFU/mL (acceptable range 3 – 7 × 10^5 CFU/mL). 50 µL of bacterial suspension was pipetted into each well (except the medium control well, where 50 µL MHII was pipetted). Final volume in each well was 100 µL. Plates were covered and incubated without shaking for 18-20 h at 35 °C ± 2 °C. MIC was read visually, as complete inhibition of growth by the unaided eye, using the medium-only wells as the control. Each compound was assayed at least in duplicate.
(§7) Additionally, the MIC for compound 2 against clinical carbapenem-resistant strains of A. baumannii […]
(§8) determined at the Public Health Agency of Sweden (according to EUCAST recommendations).
(§9) In vitro Cytotoxicity Determination. In vitro cytotoxicity was determined by a fluorometric microculture cytotoxicity assay,7 based on hydrolysis of fluorescein diacetate to fluorescein by cells with intact plasma membranes. In short, HepG2 cells (hepatocellular carcinoma cells, ATCC), in Eagle's Minimum Essential Medium (ATCC) supplemented with 10 % fetal bovine serum, penicillin/streptomycin (100 U/100 µg/mL) and 2 mM L-glutamine, were seeded in 384-well assay plates at a density of 1000 cells/well. The cells were incubated over night at 37°C and compounds in 10 mM DMSO were added, to obtain final concentrations 64 µM – 0.25 µM in two-fold dilutions.
(§10) After incubation for 72 h at 37°C, the cells were pelleted and washed. Fluorescein diacetate was […]

[2] = test system: K. pneumoniae; conditions: Klebsiella pneumoniae
Protocol: as §1, §2, §3, §4, §5, §6, §7, §8, §9, §10

[3] = test system: A. baumannii; conditions: Acinetobacter baumannii
Protocol: as §1, §2, §3, §4, §5, §6, §7, §8, §9, §10

[4] = test system: P. aeruginosa; conditions: Pseudomonas aeruginosa
Protocol: as §1, §2, §3, §4, §5, §6, §7, §8, §9, §10

For C/C=C1/NC(=O)[C@H](CCN)NC(=O)[C@H](CC(C)C)NC(=O)[C@H](CN)NC(=O)C[C@@H](CCCCCCC)OC(=O)[C@H](CC(=O)O)NC(=O)[C@H](C(C)(C)O)NC(=O)[C@@H](Cc2ccccc2)NC(=O)[C@H](CN)NC(=O)[C@H]([C@@H](C)O)NC1=O [Compound 2, isopedopeptin B] ([Dap]L[Dab][X1]T[Dap][dF][Val(3-OH)]D; linker N-C via X2), which MIC ([1]; ATCC25922, WT, read-out: MIC E. coli ATCC25922) is on record?
The MIC was 8 µg/mL (≈ 7.16 µM).

And the MIC ([1]; ATCC25922, read-out: MIC E. coli CH3130, ΔtolC mutant isogenic to ATCC25922)?
The MIC was 8 µg/mL (≈ 7.16 µM).

And the MIC ([1]; ESC, CIP, GEN, SXT, read-out: MIC E. coli CH3491)?
The MIC was 8 µg/mL (≈ 7.16 µM).

And the MIC ([1]; read-out: MIC E. coli D22, lpxC mutant, hypersensitive)?
The MIC was 4 µg/mL (≈ 3.58 µM).

And the MIC ([2]; ATCC13833, WT, read-out: MIC K. pneumoniae ATCC13833)?
The MIC was 4 µg/mL (≈ 3.58 µM).

And the MIC ([2]; Col, read-out: MIC K. pneumoniae CH9625)?
Its MIC is 4 µg/mL (≈ 3.58 µM).

And the MIC ([2]; Col, read-out: MIC K. pneumoniae CH9626)?
Its MIC is 4 µg/mL (≈ 3.58 µM).

What about the MIC ([2]; ESC, CARBA, CIP, GEN, AMK, SXT, TET, clinical multidrug-resistant, read-out: MIC K. pneumoniae CH3498) of the same compound?
Its MIC is 8 µg/mL (≈ 7.16 µM).

And the MIC ([2]; WT, read-out: MIC K. pneumoniae 1161486)?
Its MIC is 8 µg/mL (≈ 7.16 µM).

And the MIC ([2]; read-out: MIC K. pneumoniae 1161486a, ΔtolC mutant isogenic to 1161486)?
The MIC was 8 µg/mL (≈ 7.16 µM).

And the MIC ([2]; read-out: MIC colistin-resistant strains of K. pneumoniae, strains not named)?
Its MIC is at least 4 µg/mL.

And the MIC ([3]; ATCC19606, WT, read-out: MIC A. baumannii ATCC19606)?
The MIC was 8 µg/mL (≈ 7.16 µM).

And the MIC ([3]; Col (colistin-resistant), read-out: MIC A. baumannii EN0287)?
The MIC was 8 µg/mL (≈ 7.16 µM).

And the MIC ([3]; MDR clinical, read-out: MIC A. baumannii BM4454)?
Its MIC is 8 µg/mL (≈ 7.16 µM).

What about the MIC ([3]; read-out: MIC A. baumannii BM4652, efflux-defective derivative of BM4454) of the same compound?
Its MIC is 8 µg/mL (≈ 7.16 µM).

What about the MIC ([3]; read-out: MIC colistin-resistant strains of A. baumannii, strains not named) of the same compound?
Its MIC is at least 8 µg/mL.

And the MIC ([4]; PAO1, read-out: MIC P. aeruginosa PAO750)?
Its MIC is 32 µg/mL (≈ 28.6 µM).

What about the MIC ([4]; PAO1, WT, read-out: MIC P. aeruginosa PAO1) of the same compound?
The MIC was 32 µg/mL (≈ 28.6 µM).
